In ChEMBL document CHEMBL4229546, “Structure-based design and synthesis of 1H-pyrazolo[3,4-d]pyrimidin-4-amino derivatives as Janus kinase 3 inhibitors” (Bioorg Med Chem, 2018):

Tests used:
[1] = molecular target: Non-receptor tyrosine-protein kinase TYK2 (Homo sapiens, UniProt P29597)
[2] = molecular target: Tyrosine-protein kinase JAK1 (Homo sapiens, UniProt P23458)
[3] = molecular target: Tyrosine-protein kinase BTK (Homo sapiens, UniProt Q06187)
Chain of Tyrosine-protein kinase BTK (Q06187 whole entry): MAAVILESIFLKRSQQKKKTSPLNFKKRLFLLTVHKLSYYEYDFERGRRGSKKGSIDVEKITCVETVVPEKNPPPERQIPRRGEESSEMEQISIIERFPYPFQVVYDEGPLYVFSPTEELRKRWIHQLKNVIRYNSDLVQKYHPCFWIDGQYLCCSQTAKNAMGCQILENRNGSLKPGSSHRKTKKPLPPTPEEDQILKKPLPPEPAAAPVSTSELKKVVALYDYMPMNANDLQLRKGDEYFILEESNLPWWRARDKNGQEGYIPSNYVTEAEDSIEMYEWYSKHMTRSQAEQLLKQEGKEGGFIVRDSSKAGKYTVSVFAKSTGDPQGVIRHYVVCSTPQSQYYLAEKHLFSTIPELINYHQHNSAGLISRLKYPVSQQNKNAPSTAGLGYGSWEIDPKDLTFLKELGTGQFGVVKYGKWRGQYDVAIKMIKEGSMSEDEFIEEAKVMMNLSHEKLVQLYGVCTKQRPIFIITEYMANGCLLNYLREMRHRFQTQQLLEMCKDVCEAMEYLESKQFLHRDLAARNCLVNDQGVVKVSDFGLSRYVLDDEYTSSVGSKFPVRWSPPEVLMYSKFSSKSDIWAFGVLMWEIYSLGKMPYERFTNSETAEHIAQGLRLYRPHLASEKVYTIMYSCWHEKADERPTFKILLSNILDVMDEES

Chain of Tyrosine-protein kinase JAK1 (P23458 whole entry): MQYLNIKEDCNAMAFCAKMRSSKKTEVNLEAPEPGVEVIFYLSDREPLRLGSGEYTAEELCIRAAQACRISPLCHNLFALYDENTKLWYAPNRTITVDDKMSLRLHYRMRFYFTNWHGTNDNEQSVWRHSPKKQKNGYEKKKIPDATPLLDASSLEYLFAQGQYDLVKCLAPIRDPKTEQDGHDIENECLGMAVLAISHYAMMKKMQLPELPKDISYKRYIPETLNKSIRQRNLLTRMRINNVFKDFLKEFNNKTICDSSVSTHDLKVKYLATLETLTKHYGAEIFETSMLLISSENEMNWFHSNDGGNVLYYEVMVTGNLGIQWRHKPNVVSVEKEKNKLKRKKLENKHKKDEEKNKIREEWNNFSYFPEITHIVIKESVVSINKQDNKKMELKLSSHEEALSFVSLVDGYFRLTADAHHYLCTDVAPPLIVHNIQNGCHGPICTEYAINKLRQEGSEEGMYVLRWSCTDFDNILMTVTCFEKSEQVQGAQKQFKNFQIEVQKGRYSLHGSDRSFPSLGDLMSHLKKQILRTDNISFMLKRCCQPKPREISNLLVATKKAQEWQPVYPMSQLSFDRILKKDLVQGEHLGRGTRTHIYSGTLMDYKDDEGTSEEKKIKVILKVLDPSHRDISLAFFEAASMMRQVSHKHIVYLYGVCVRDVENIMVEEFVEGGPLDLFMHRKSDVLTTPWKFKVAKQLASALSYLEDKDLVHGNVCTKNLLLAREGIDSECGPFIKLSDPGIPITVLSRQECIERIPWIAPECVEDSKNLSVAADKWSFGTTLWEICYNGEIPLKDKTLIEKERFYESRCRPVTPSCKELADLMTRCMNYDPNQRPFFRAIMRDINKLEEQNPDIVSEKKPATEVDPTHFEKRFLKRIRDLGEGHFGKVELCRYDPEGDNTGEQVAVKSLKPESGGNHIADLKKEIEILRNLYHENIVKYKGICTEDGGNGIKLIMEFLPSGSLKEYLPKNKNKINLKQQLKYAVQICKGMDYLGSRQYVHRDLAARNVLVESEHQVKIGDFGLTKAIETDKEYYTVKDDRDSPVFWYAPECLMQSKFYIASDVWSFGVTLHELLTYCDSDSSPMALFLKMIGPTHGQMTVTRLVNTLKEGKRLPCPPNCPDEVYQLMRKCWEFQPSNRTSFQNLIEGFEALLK
Chain of Non-receptor tyrosine-protein kinase TYK2 (P29597 whole entry): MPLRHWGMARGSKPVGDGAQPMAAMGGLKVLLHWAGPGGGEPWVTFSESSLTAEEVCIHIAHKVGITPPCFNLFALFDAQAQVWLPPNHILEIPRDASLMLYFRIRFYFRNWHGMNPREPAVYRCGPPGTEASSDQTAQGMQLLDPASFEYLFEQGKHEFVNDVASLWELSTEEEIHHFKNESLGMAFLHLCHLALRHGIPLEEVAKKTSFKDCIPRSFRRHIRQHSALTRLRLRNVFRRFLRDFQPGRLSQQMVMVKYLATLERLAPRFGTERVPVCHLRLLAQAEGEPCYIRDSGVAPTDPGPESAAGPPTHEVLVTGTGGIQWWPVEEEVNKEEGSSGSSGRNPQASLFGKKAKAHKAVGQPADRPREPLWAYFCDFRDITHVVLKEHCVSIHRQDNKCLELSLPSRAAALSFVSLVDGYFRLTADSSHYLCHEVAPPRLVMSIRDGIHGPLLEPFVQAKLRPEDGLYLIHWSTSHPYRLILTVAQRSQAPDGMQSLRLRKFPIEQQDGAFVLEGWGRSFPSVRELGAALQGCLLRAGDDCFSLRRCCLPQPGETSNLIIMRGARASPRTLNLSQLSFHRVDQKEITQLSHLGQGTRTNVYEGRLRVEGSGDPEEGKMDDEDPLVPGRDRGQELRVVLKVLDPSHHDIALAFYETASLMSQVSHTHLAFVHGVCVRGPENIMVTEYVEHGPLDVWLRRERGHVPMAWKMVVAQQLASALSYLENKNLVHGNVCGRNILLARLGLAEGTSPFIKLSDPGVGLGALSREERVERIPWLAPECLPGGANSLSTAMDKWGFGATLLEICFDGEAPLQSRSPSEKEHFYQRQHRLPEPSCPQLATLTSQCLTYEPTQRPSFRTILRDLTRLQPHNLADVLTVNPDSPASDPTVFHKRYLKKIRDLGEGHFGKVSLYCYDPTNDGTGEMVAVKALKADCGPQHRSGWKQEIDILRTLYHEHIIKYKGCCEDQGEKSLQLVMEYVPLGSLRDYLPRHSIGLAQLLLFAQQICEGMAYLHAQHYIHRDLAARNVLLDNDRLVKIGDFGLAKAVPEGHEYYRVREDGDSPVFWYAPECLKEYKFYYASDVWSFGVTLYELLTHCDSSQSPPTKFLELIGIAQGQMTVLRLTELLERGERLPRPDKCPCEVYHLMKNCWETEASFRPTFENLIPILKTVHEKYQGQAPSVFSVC

`C=CC(=O)N1CCCC(Cn2nc(-c3cnn(CCOC)c3)c3c(N)ncnc32)C1` (stereo not given) gave an IC50 [1] of 3300 nM, an IC50 [2] of 1670 nM and an IC50 [3] of 420 nM.

Molecule `COCCn1cc(-c2nn(C3CCN(C#N)CC3)c3ncnc(N)c23)cn1` has an IC50 [2] of 112 nM.

In the case of `CN(C)CC(=O)N1CCCC(n2nc(-c3cnn(C)c3)c3c(N)ncnc32)C1` (stereo not given), the IC50 [2] is reported as 1370 nM.

`COCCn1cc(-c2nn(CC3CCCN(C(=O)CC#N)C3)c3ncnc(N)c23)cn1` (stereo not given) showed an IC50 [1] of over 3000 nM and an IC50 [2] of 497 nM.

Work on `C=CC(=O)N1CCCC(n2nc(-c3cnn(C)c3)c3c(N)ncnc32)C1` (stereo not given) yielded an IC50 [1] of 1180 nM, an IC50 [2] of 618 nM and an IC50 [3] of 180 nM.

With `Cn1cc(-c2nn(CC3CCCN(C(=O)CC#N)C3)c3ncnc(N)c23)cn1` (stereo not given) the IC50 [1] was 2350 nM and the IC50 [2] was 147 nM.

`C=CC(=O)N1CCC(n2nc(-c3cnn(C)c3)c3c(N)ncnc32)C1` (stereo not given) showed an IC50 [1] of 1420 nM, an IC50 [2] of 694 nM and an IC50 [3] of 203 nM.

`CN(C)CC(=O)N1CCCC(Cn2nc(-c3cnn(C)c3)c3c(N)ncnc32)C1` (stereo not given) gave an IC50 [2] of 2290 nM.

`Cn1cc(-c2nn(C3CCN(C#N)CC3)c3ncnc(N)c23)cn1` showed an IC50 [2] of 165 nM.

Work on `C=CC(=O)N1CCCC(Cn2nc(-c3cnn(C)c3)c3c(N)ncnc32)C1` (stereo not given) yielded an IC50 [1] of 3960 nM, an IC50 [2] of 1950 nM and an IC50 [3] of 481 nM.

`C=CC(=O)N1CCCC(n2nc(-c3cnn(CCOC)c3)c3c(N)ncnc32)C1` (stereo not given) showed an IC50 [1] of 2120 nM, an IC50 [2] of 1350 nM and an IC50 [3] of 159 nM.

`COCCn1cc(-c2nn(C3CCCN(C(=O)CC#N)C3)c3ncnc(N)c23)cn1` (stereo not given) gave an IC50 [1] of 3220 nM and an IC50 [2] of 497 nM.

Molecule `C=CC(=O)N1CCC(n2nc(-c3cnn(CCOC)c3)c3c(N)ncnc32)C1` (stereo not given) has an IC50 [1] of 1720 nM, an IC50 [2] of 1070 nM and an IC50 [3] of 126 nM.

Molecule `Cn1cc(-c2nn(C3CCCN(C(=O)CC#N)C3)c3ncnc(N)c23)cn1` (stereo not given) has an IC50 [1] of 2430 nM and an IC50 [2] of 342 nM.
